Results published in patent publication US20210246502A1, “RAPID IDENTIFICATION OF STRAINS FROM SEQUENCE DATA” (priority 2018, published 2021).

What was measured:
N. gonorrhoeae [1] = type: cell-based, Neisseria gonorrhoeae; details: out of all 1102 gonococcal isolates; ancestral reconstruction only for cefixime
Excerpt: (§1) For all antibiotics, RASE associates individual isolates with a resistance category, susceptible or non-susceptible. First, MIC values are mined using regular expressions from the available textual antibiograms, i.e., strings describing an interval of possible MIC values. Second, the acquired intervals are compared to the antibiotic-specific breakpoints (FIG. 6). If a given breakpoint is above or below the interval, susceptibility or non-susceptibility is reported, respectively. However, no category can be assigned at this step if the breakpoint lies within the extracted interval, an antibiogram is entirely missing, or an antibiogram is present, but parsing failed. Third, missing categories are inferred using ancestral state reconstruction on the associated phylogenetic tree while maximizing parsimony (i.e., minimizing the number of nodes switching its resistance category; FIG. 7).
(§2) The pneumococcal RASE database was constructed with the standard EUCAST breakpoints^16 ([g/ml]): benzylpenicillin (PEN): 0.06, ceftriaxone (CRO): 0.25, trimethoprim-sulfamethoxazole (SXT): 1.00, erythromycin (ERY): 0.25, and tetracycline (TET): 1.00. The gonococcal RASE database was constructed with the CDC GISP breakpoints ([g/ml]): azithromycin (AZM): 2.0, cefixime (CFM): 0.25, ciprofloxacin (CIP): 1.0, and ceftriaxone (CRO): 0.125. While the Inventors have used the above values in the present work, others may be readily defined and the database rapidly updated.
(§3) The Inventors assigned each pneumococcal and gonococcal isolate to an antibiotic-specific resistance category using the EUCAST breakpoints and CDC GISP breakpoints, respectively. Since MIC data were not always available, the Inventors estimated the likely resistance phenotype of unannotated isolates using ancestral state reconstruction.

S. pneumoniae [2] = assay: Resistance categories of pneumococcal RASE database isolates (MIC vs EUCAST breakpoints, ancestral state reconstruction); type: cell-based, Streptococcus pneumoniae; details: for resistance phenotype of best match database isolate: best match in the Massachusetts RASE database for SP03 and SP06; for number of isolates susceptible: out of all 616 pneumococcal isolates, includes categories inferred by ancestral state reconstruction
Excerpt: as §1, with “(see below).” for “(FIG. 6).”, “category).” for “category; FIG. 7).”
The RASE database is constructed with the standard EUCAST breakpoints ([g/ml]): Benzylpenicillin (PEN): 0.06, Ceftriaxone (CRO): 0.25, […]: 1.00, Erythromycin (ERY): 0.25, and Tetracycline (TET): 1.00. The breakpoints are set conservatively, i.e., non-susceptibility is preferred over susceptibility for intermediate values. While the Inventors have used the above values in the present work, others may be readily defined and the database rapidly updated.
as §1, §2, §3

N. gonorrhoeae [3] = assay: MIC of gonococcal isolates against CDC GISP breakpoint; type: cell-based, Neisseria gonorrhoeae; set-up: unit not given beside the values
Excerpt: as §2, with “updated. This is especially useful in the case where breakpoints may vary depending on the site of infection (as is the case with pneumococcal meningitis and otitis media, where lower MICs are considered to be resistant).” for “updated.”

S. pneumoniae [4] = assay: Resistance of streptococcus in metagenomic sputum samples by agar diffusion, EUCAST methodology and breakpoints; type: cell-based, Streptococcus pneumoniae; details: metagenomic sputum sample SP10 (Swedish 15A clone, ST63)
Experimental: Resistance of streptococcus in the metagenomic samples (SP07-SP12) was determined by agar diffusion using the EUCAST methodology and breakpoints. First, the inoculated agar plates were incubated at 37° C. overnight and then examined for growth with the potential for re-incubation up to 48 hours. Then, the samples were screened to oxacillin: if the zone diameter r was >20 mm, the isolate was considered sensitive to benzylpenicillin, otherwise a full MIC measurement to benzylpenicillin was done.

S. pneumoniae [5] = assay: Antibiograms of additional pneumococcal isolates not in the RASE database, EUCAST breakpoints; type: cell-based, Streptococcus pneumoniae; details: 23F isolates SP03 and SP06, related to Tennessee 23F-4 clone
Excerpt: The Inventors examined four additional pneumococcal isolates (FIG. 14b) for which the serotype and limited antibiogram and lineage data were known. The Inventors compared three characteristics of the sample to assess the Inventors' performance: the serotype, the MLST sequence type (ST) and the antibiograms (benzylpenicillin, ceftriaxone, trimethoprim-sulfamethoxazole, erythromycin, and tetracycline resistance according to EUCAST breakpoints).

CC[C@H]1OC(=O)[C@H](C)[C@@H](O[C@H]2C[C@@](C)(OC)[C@@H](O)[C@H](C)O2)[C@H](C)[C@@H](O[C@@H]2O[C@H](C)C[C@H](N(C)C)[C@H]2O)[C@](C)(O)C[C@@H](C)CN(C)[C@H](C)[C@@H](O)[C@]1(C)O [azithromycin]
number of isolates associated with resistance (N. gonorrhoeae [1]): 232

CC1(C)S[C@@H]2[C@H](NC(=O)Cc3ccccc3)C(=O)N2[C@H]1C(=O)O [benzylpenicillin]
resistance phenotype of best match database isolate (S. pneumoniae [2]): resistant | number of isolates susceptible (S. pneumoniae [2]): 341

C=CC1=C(C(=O)O)N2C(=O)[C@@H](NC(=O)/C(=N\OCC(=O)O)c3csc(N)n3)[C@H]2SC1 [cefixime]
number of isolates associated with resistance (N. gonorrhoeae [1]): 266

CO/N=C(\C(=O)N[C@@H]1C(=O)N2C(C(=O)O)=C(CSc3nc(=O)c(=O)[nH]n3C)CS[C@H]12)c1csc(N)n1 [ceftriaxone]
number of isolates susceptible (S. pneumoniae [2]): 485 | number of isolates associated with resistance (N. gonorrhoeae [1]): 69 | MIC (N. gonorrhoeae [3]; best match of GC05 in the RASE database): 0.062 | MIC (N. gonorrhoeae [3]; multi-drug resistant isolate GC05, equal to CDC GISP breakpoint): 0.125

O=C(O)c1cn(C2CC2)c2cc(N3CCNCC3)c(F)cc2c1=O [ciprofloxacin]
number of isolates associated with resistance (N. gonorrhoeae [1]): 594

CC[C@H]1OC(=O)[C@H](C)[C@@H](O[C@H]2C[C@@](C)(OC)[C@@H](O)[C@H](C)O2)[C@H](C)[C@@H](O[C@@H]2O[C@H](C)C[C@H](N(C)C)[C@H]2O)[C@](C)(O)C[C@@H](C)C(=O)[C@H](C)[C@@H](O)[C@]1(C)O [erythromycin]
resistance phenotype of best match database isolate (S. pneumoniae [2]): susceptible | number of isolates susceptible (S. pneumoniae [2]): 484 | resistance phenotype of sample (S. pneumoniae [4]): resistant | resistance phenotype of samples (S. pneumoniae [5]): resistant

Cc1onc(-c2ccccc2)c1C(=O)N[C@@H]1C(=O)N2[C@@H]1SC(C)(C)[C@@H]2C(=O)O [oxacillin]
resistance phenotype of sample (S. pneumoniae [4]): resistant

CN(C)[C@@H]1C(O)=C(C(N)=O)C(=O)[C@@]2(O)C(O)=C3C(=O)c4c(O)cccc4[C@@](C)(O)[C@H]3C[C@@H]12 [tetracycline]
number of isolates susceptible (S. pneumoniae [2]): 551

COc1cc(Cc2cnc(N)nc2N)cc(OC)c1OC [trimethoprim, Trimethoprim]
number of isolates susceptible (S. pneumoniae [2]): 480

trimethoprim-sulfamethoxazole
number of isolates susceptible (S. pneumoniae [2]): 480
